Laboratory results reported in US20050065199A1, “Low-salt or salt-free microbicidal composition based on isothiazolone derivatives and pyrion disulphide” (priority 2003, published 2005).
Where two headings read alike, the source gives them in different places.

What was measured:
[1] = Stabilization of Kathon 39 FG / bromo-2-nitropropane-1,3-diol basic preparation: appearance and pH on storage
Procedure: A basic preparation which contained 88.34% of purified water, 6.00% of bromo-2-nitropropane-1,3-diol and 5.66% of Kathon 39 FG was made. […] Kathon 39 FG is a mixture of CMI and MI prepared with solvent and a low salt and water content (available from Rohm & Haas Company). Thereafter, 100 g of the basic preparation were brought to a pH of 5.16 with triethanolamine (preparation A) and with imidazole to a pH of 5.32 (preparation B). Preparation C was prepared with the addition of 0.1% of pyrion disulphide to 100 g of the basic preparation. The basic preparation D (without addition) acted as reference. The appearance of a freshly made preparation and the appearance as affected by increasing storage times were examined. In addition, the pH of all preparations was tested after 35 days.

[2] = Procedure: Moreover, it is preferred that the reaction is carried out over a period of 5 minutes to 4 hours, preferably up to 120 minutes and in particular up to 60 minutes. Suitable reaction temperatures are in the range of from 0 to 80° C., preferably 10 to 40° C. and in particular 20 to 30° C. If appropriate, the stabilizer solution obtained after the reaction can be filtered in order to remove troublesome solid components.

Structure (SMILES) | stabilization of aqueous CMI/MI-based preparation containing 6.00% of bromo-2-nitropropane-1,3-diol ([1]; additive to the basic preparation, versus basic preparation D) | solubility in water [2] [% by weight] | stabilization of aqueous CMI/MI-based preparation containing 6.00% of bromo-2-nitropropane-1,3-diol [1]
c1c[nH]cn1 [imidazole] | stabilizing effect on the composition, albeit to a lesser extent |  | 
[O-][n+]1ccccc1SSc1cccc[n+]1[O-] [pyrion disulphide, 2,2′-dithiobis(pyridine N-oxide)] |  | 0.9 | improved
